The target in data set [1] is recombinant integrase (HIV integrase) (Human immunodeficiency virus type 1 group M subtype B, UniProt P04585). The note with it: strand transfer assay of Example 193 of WO 02/30930. From the text:
The strand transfer assay is described in Example 193 of WO 02/30930.

For data set [2], the system named is acute HIV infection of T-lymphoid cells. Put plainly: assay for the inhibition of acute HIV infection of T-lymphoid cells. In kind it is cell-based. The note with it: in accordance with Vacca et al., PNAS 1994, 91: 4096-4100. The source says: Compound A is an inhibitor of HIV integrase.
The nature of data set [3]: oral bioavailability and pharmacokinetics in rats. In kind it is in vivo. The note with it: relative to amorphous and crystalline Compound A.
Data set [4] can be described thus: oral bioavailability and pharmacokinetics in dogs. In kind it is in vivo. The note with it: relative to amorphous and crystalline Compound A.
A short description of data set [5]: oral absorption and pharmacokinetics in animal models. In kind it is in vivo. The following applies: compared to crystalline Compound A per se. From the text:
The present invention is directed to a pharmaceutically acceptable alkali metal salt of an HIV integrase inhibitor.

Each structure is given as a SMILES string.

`O=C(NCc1ccc(F)cc1)c1nc(N2CCCCS2(=O)=O)c2cccnc2c1O` [Compound A, 5-(1,1-dioxido-1,2-thiazinan-2-yl)-N-(4-fluorobenzyl)-8-hydroxy-1,6-naphthyridine-7-carboxamide]: in data set [1], the “inhibition of integrase strand transfer” value is recorded as “potent inhibitor”. The “inhibition of acute HIV infection of T-lymphoid cells” value in data set [2] is listed as “active”.

As for `O=C(NCc1ccc(F)cc1)c1nc(N2CCCCS2(=O)=O)c2cccnc2c1[O-].[Na+]` [crystalline sodium salt of Compound A, Sodium salt of 5-(1,1-Dioxido-1,2-thiazinan-2-yl)-N-(4-fluorobenzyl)-8-hydroxy-1,6-naphthyridine-7-carboxamide], in data set [3], the oral bioavailability result is “superior oral bioavailability”; the “pharmacokinetics (e.g., Cmax and AUC)” value is “improved pharmacokinetics”. In data set [4], the oral bioavailability entry is “superior oral bioavailability”; the “pharmacokinetics (e.g., Cmax and AUC)” value is recorded as “improved pharmacokinetics”. In data set [5], the oral absorption result is given as “superior oral absorption” and the pharmacokinetics result is on record as “improved pharmacokinetics”.

These data come from US6924282B2, “Sodium salt of an HIV integrase inhibitor” (Merck & Co., Inc., priority 2001, dated 2005).
